According to the supplement of paper PMC10883282:

Legend:
Experiment in all cases: relative viability vs DMSO control (72 h) (fraction); higher = more viable cells
SW1353 = system: SW1353
In short: (§1)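 Sarcoma cell lines in 384-well plates, seeded to reach 80–90% confluence, were given compound after 24 h and kept 72 h at 37 °C, 5% CO2, with 0.1% DMSO vehicle and a 5 µM positive control. Relative viability came from ATPLite as percent growth, averaged over up to triplicate wells. On the rescaled values, 1 equals full and 0 equals none.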

RD-ES = system: RD-ES
In short: as §1

SW684 = system: SW684
In short: as §1

KHOS-240S = system: KHOS-240S
In short: as §1

A204 = system: A204
In short: as §1

SW872 = system: SW872
In short: as §1

KHOS-NP = system: KHOS-NP
In short: as §1

SW982 = system: SW982
In short: as §1

G401 = system: G401
In short: as §1

SYO-1 = system: SYO-1
In short: as §1

HT1080 = system: HT1080
In short: as §1

SK-ES-1 = system: SK-ES-1
In short: as §1

COc1cc(CCc2cc(NC(=O)c3ccc(N4CC(C)NC(C)C4)cc3)n[nH]2)cc(OC)c1 (configuration not stated) [AZD-4547]
Settings | relative viability
A204, 0.00017 µM | 1.04
A204, 0.00051 µM | 1.06
A204, 0.00152 µM | 1.04
A204, 0.00457 µM | 1.02
A204, 0.01372 µM | 1.02
A204, 0.04115 µM | 0.841
A204, 0.1235 µM | 0.714
A204, 0.3704 µM | 0.625
A204, 1.111 µM | 0.556
A204, 3.333 µM | 0.463
A204, 10 µM | 0.274
G401, 0.00017 µM | 1
G401, 0.00051 µM | 0.999
G401, 0.00152 µM | 0.964
G401, 0.00457 µM | 0.976
G401, 0.01372 µM | 0.9
G401, 0.04115 µM | 0.845
G401, 0.1235 µM | 0.706
G401, 0.3704 µM | 0.589
G401, 1.111 µM | 0.486
G401, 3.333 µM | 0.356
G401, 10 µM | 0.136
HT1080, 0.00017 µM | 1.085
HT1080, 0.00051 µM | 1.1
HT1080, 0.00152 µM | 1.08
HT1080, 0.00457 µM | 1.07
HT1080, 0.01372 µM | 1.06
HT1080, 0.04115 µM | 1.01
HT1080, 0.1235 µM | 1.04
HT1080, 0.3704 µM | 1.08
HT1080, 1.111 µM | 1.04
HT1080, 3.333 µM | 1.04
HT1080, 10 µM | 0.859
KHOS-240S, 0.00017 µM | 1.04
KHOS-240S, 0.00051 µM | 1.07
KHOS-240S, 0.00152 µM | 1.036
KHOS-240S, 0.00457 µM | 1.02
KHOS-240S, 0.01372 µM | 1.02
KHOS-240S, 0.04115 µM | 0.9306
KHOS-240S, 0.1235 µM | 0.841
KHOS-240S, 0.3704 µM | 0.784
KHOS-240S, 1.111 µM | 0.72
KHOS-240S, 3.333 µM | 0.619
KHOS-240S, 10 µM | 0.288
KHOS-NP, 0.00017 µM | 1.079
KHOS-NP, 0.00051 µM | 1.1
KHOS-NP, 0.00152 µM | 1.07
KHOS-NP, 0.00457 µM | 1.08
KHOS-NP, 0.01372 µM | 1.048
KHOS-NP, 0.04115 µM | 1.03
KHOS-NP, 0.1235 µM | 1.03
KHOS-NP, 0.3704 µM | 1.01
KHOS-NP, 1.111 µM | 1.02
KHOS-NP, 3.333 µM | 1
KHOS-NP, 10 µM | 0.927
RD-ES, 0.00017 µM | 0.946
RD-ES, 0.00051 µM | 0.96
RD-ES, 0.00152 µM | 0.959
RD-ES, 0.00457 µM | 0.961
RD-ES, 0.01372 µM | 0.95
RD-ES, 0.04115 µM | 0.9048
RD-ES, 0.1235 µM | 0.89
RD-ES, 0.3704 µM | 0.871
RD-ES, 1.111 µM | 0.808
RD-ES, 3.333 µM | 0.6084
RD-ES, 10 µM | 0.173
SK-ES-1, 0.00017 µM | 1.02
SK-ES-1, 0.00051 µM | 1.02
SK-ES-1, 0.00152 µM | 1.01
SK-ES-1, 0.00457 µM | 1
SK-ES-1, 0.01372 µM | 1.05
SK-ES-1, 0.04115 µM | 0.947
SK-ES-1, 0.1235 µM | 0.928
SK-ES-1, 0.3704 µM | 0.878
SK-ES-1, 1.111 µM | 0.821
SK-ES-1, 3.333 µM | 0.483
SK-ES-1, 10 µM | 0.141
SW684, 0.00017 µM | 1.11
SW684, 0.00051 µM | 1.1
SW684, 0.00152 µM | 1.12
SW684, 0.00457 µM | 1.14
SW684, 0.01372 µM | 1.07
SW684, 0.04115 µM | 1.07
SW684, 0.1235 µM | 1.06
SW684, 0.3704 µM | 1.06
SW684, 1.111 µM | 1.08
SW684, 3.333 µM | 1.08
SW684, 10 µM | 0.999
SW872, 0.00017 µM | 1.05
SW872, 0.00051 µM | 1
SW872, 0.00152 µM | 1
SW872, 0.00457 µM | 0.991
SW872, 0.01372 µM | 0.987
SW872, 0.04115 µM | 0.976
SW872, 0.1235 µM | 0.963
SW872, 0.3704 µM | 0.954
SW872, 1.111 µM | 0.926
SW872, 3.333 µM | 0.725
SW872, 10 µM | 0.465
SW982, 0.00017 µM | 1
SW982, 0.00051 µM | 1
SW982, 0.00152 µM | 1.02
SW982, 0.00457 µM | 1.018
SW982, 0.01372 µM | 0.982
SW982, 0.04115 µM | 1
SW982, 0.1235 µM | 1
SW982, 0.3704 µM | 0.995
SW982, 1.111 µM | 0.922
SW982, 3.333 µM | 0.591
SW982, 10 µM | 0.206
SW1353, 0.00017 µM | 1.06
SW1353, 0.00051 µM | 1.03
SW1353, 0.00152 µM | 1.03
SW1353, 0.00457 µM | 0.981
SW1353, 0.01372 µM | 0.938
SW1353, 0.04115 µM | 0.886
SW1353, 0.1235 µM | 0.893
SW1353, 0.3704 µM | 0.849
SW1353, 1.111 µM | 0.821
SW1353, 3.333 µM | 0.829
SW1353, 10 µM | 0.595
SYO-1, 0.00017 µM | 0.945
SYO-1, 0.00051 µM | 0.864
SYO-1, 0.00152 µM | 0.836
SYO-1, 0.00457 µM | 0.763
SYO-1, 0.01372 µM | 0.672
SYO-1, 0.04115 µM | 0.637
SYO-1, 0.1235 µM | 0.588
SYO-1, 0.3704 µM | 0.559
SYO-1, 1.111 µM | 0.519
SYO-1, 3.333 µM | 0.408
SYO-1, 10 µM | 0.224
